# Measured values as given in the METLIN SMRT retention time set (Domingo-Almenara et al. 2019).
# Test: gradient 5% acetonitrile 3 min, to 50% in 2 min, to 85% in 15 min, held 3 min, 100 µL/min
# Conditions: column: Zorbax Extend-C18 2.1 x 50 mm; eluents: water / acetonitrile, 0.1% formic acid
# Procedure, shortened: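 In both positive and negative ionization mode, a quadrupole time-of-flight mass spectrometer coupled to HPLC analyzed pure standards run in mixtures of ~100 molecules. The Zorbax Extend-C18 column (2.1 × 50 mm, 1.8 μm) was operated at 100 μL/min with water and acetonitrile, each containing 0.1% formic acid. The dead volume was 40 μL and the dwell volume 900 μL. Retention time came from adduct peaks that were computationally picked and individually inspected by hand.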
row,SMILES,RP-LC retention time [s]
1,CCOCCCNC(=O)c1cc2c(n(-c3ccc(C(F)(F)F)cc3)c1=O)CCCC2=O,853
2,O=C(NCC1CCOCC1)Nc1cccc(F)c1,698
3,COC1CCC12CCN(C(=O)CNC(C)=O)CC2 (stereo not drawn),607
4,CCOC(=O)c1cc(S(=O)(=O)N2CCCC2C(=O)NC2CCCC2)cn1C (stereo not drawn),732
5,CCc1ccc(S(=O)(=O)Nc2cc(-n3c(C)nc4ccccc4c3=O)ccc2F)s1,797
6,Cc1ccc(N2CCC(NC(=O)NCc3ccc(F)cc3)C2=O)cc1C (stereo not drawn),874
7,O=C(NC1CCN(c2cc(-c3ccc(Cl)cc3)[nH]n2)C1)c1cccc(F)c1 (stereo not drawn),721
8,CCn1cc(NC(=O)Nc2nc(C)cs2)c2ccccc21,792
9,O=c1ccc(S(=O)(=O)N2CCCC2)cn1Cc1ccc(F)cc1,820
10,O=C(COc1cccc2c(=O)[nH]ccc12)c1ccccc1,806
11,O=C(Nc1nnc(SCC(=O)N2CCc3ccccc32)s1)NC1CCCCC1,839
12,COC(=O)c1c(C)[nH]c(C(=O)N2CCCC(C(=O)NCCCc3ccccc3)C2)c1C (stereo not drawn),800
13,CCC(=O)N1CCc2cc(N3CC(C(=O)Nc4ccc(OC)cc4)CC3=O)ccc21 (stereo not drawn),714
14,O=C(Nc1cccc2ccc(-n3ccnc3)nc12)c1ccsc1,615
15,Cc1ccc(NC(=O)Cn2nc(N3CCCC(C)C3)c3ccccc3c2=O)c(F)c1 (stereo not drawn),1110
16,O=C1CC(c2nc(-c3ccc4c(c3)OCO4)no2)CN1c1cccc(Cl)c1 (stereo not drawn),999
17,O=C(NCc1ccc(F)cc1)N1CCN(CCn2c(C(F)(F)F)nc3cccnc32)CC1,639
18,CCc1cc(-c2csc(S(=O)(=O)N3CCN(c4ccc(Cl)cc4)CC3)c2)on1,1200
19,O=S(=O)(c1cc(F)cc(F)c1)N1CCC(c2noc(-c3ccc(F)cc3)n2)CC1,1170
20,COc1ccccc1-c1noc(-c2nc(C)no2)n1,877
21,Nc1cc(C2CCN(C(=O)Nc3cccc(Br)c3)CC2)no1,744
22,CCc1cc(C(=O)N2CCN(C(C)C)CC2)nc2cc(-c3ccccn3)nn12,650

row,SMILES,RP-LC retention time [s]
1,CC(C)NC(=O)c1cnn2c(-c3ccccn3)ccnc12,718
2,Cc1cc2nc(C)c(=O)n(CC(=O)NCCc3c[nH]c4ccccc34)c2cc1C,814
3,Cc1noc(C)c1S(=O)(=O)NCC1CCN(S(=O)(=O)C2CC2)CC1,709
4,COCCn1c(C2CCN(S(=O)(=O)c3ccc(F)cc3)C2)nc2cccnc21 (stereo not drawn),763
5,CCc1noc(-c2nc(-c3ccccc3OC)no2)n1,986
6,CC(NC(=O)C1CC(=O)N(c2ccc3c(c2)CCN3C(=O)C2CC2)C1)c1ccccc1 (stereo not drawn),740
7,CCN1CCN(C(=O)C2CCN(C3=NS(=O)(=O)C(c4ccc(C)c(C)c4)=C3C)CC2)CC1,598
8,CCNC(=O)c1sc2nc(-c3ccccc3)c(NCCOC)n2c1C,712
9,Cc1ccccc1CNC(=O)C1CCCN1S(=O)(=O)c1cc2c(cc1Cl)NC(=O)CO2 (stereo not drawn),786
10,O=C(NC1CCN(c2cc(-c3ccccc3)[nH]n2)C1)c1ccc2c(c1)OCO2 (stereo not drawn),648
11,CCOc1ccc(C2Cn3nnc(-c4nc(-c5ccccc5C)no4)c3CO2)cc1 (stereo not drawn),1270
12,CCOC(=O)c1ccc(NC(=O)NCC2CCN(Cc3ccc(C)cc3)C2)cc1 (stereo not drawn),688
13,CN1C(=O)c2cc(C(=O)Nc3ccc(F)cc3F)nn2CC1(C)C(=O)NC1CCCCC1 (stereo not drawn),732
14,CCOc1ccc(N2CC(c3nnc(NC(=O)c4ccc(C(C)(C)C)cc4)o3)CC2=O)cc1 (stereo not drawn),935
15,Cc1ccnc(NC(=O)C2CCCN(c3ncnc4c3nc3n4CCCCC3)C2)c1 (stereo not drawn),643
16,O=S(=O)(c1cc(F)cc(F)c1)N1CCC(c2noc(-c3cccc(F)c3)n2)CC1,1170
17,CCc1ccc(S(=O)(=O)Nc2ccc(C3(C(=O)NCC4CCCO4)CC3)cc2)cc1 (stereo not drawn),867
18,O=C(CCC1CCN(S(=O)(=O)c2ccccc2)CC1)N1CCCCC1,894
19,CC1(C(=O)NCc2ccccc2)Cn2cnc(C(=O)N3CCc4ccccc43)c2C(=O)N1C1CC1 (stereo not drawn),720
20,COc1ccc(NC(=O)NCCc2cn(C)c3ncccc23)cc1OC,612
21,O=C(NC1CCCCC1)C1CCCN(C(=O)c2ccc(Cl)cc2)C1 (stereo not drawn),855
22,Fc1ccc(CN2CCc3nc(N4CCN(c5ccccc5F)CC4)ncc3C2)c(F)c1,795

row,SMILES,RP-LC retention time [s]
1,Cc1cccc(OCC(=O)N(Cc2ccc(N(C)C)cc2)C2CCS(=O)(=O)C2)c1C (stereo not drawn),798
2,CCn1ccc(C(=O)N2CC(c3nc(CCOCC4CC4)no3)C2)n1,725
3,CCOc1ccccc1NC(=O)N1CCc2nc[nH]c2C1,577
4,Cc1ccc(C)c(N2CCN(Cc3nc(-c4ccc(N5CCOCC5)nc4)no3)CC2)c1,949
5,Cc1ccc(-n2nc(N3CCCC(C(=O)NC4CCCCCCC4)C3)ccc2=O)cc1Cl (stereo not drawn),1110
6,CN(CC1COCCO1)c1ccc(C(=O)O)cc1NC(=O)c1ccccc1Cl (stereo not drawn),771
7,CCN(CC)CCNC(=O)c1sc2ncn(Cc3ccccc3F)c(=O)c2c1C,638
8,Fc1ccc(-c2csc(Cc3nc(-c4cccc(Cl)c4)no3)n2)cc1,1310
9,Cc1ccc(N2CC(c3nc(-c4ccccn4)no3)CC2=O)cc1Cl (stereo not drawn),838
10,N#Cc1ccc(NC(=O)Cn2cccc(-c3nc(-c4ccc(Br)cc4)no3)c2=O)cc1,952
11,Cc1ccc(NC(=O)C2CCCN2S(=O)(=O)c2cc3c(cc2C)NC(=O)C(C)O3)cc1 (stereo not drawn),794
12,CN1C(=O)[C@H]2CN(Cc3cccc(Br)c3)C[C@H]2C1=O,608
13,O=C(NC1CCCCCCC1)C1CCN(S(=O)(=O)c2ccc(-c3noc(C4CC4)n3)cc2)CC1,1120
14,Cc1nnc(N2CCC(C(=O)NCCc3c[nH]c4ccccc34)CC2)c2nn(-c3ccccc3)c(C)c12,730
15,Cc1cc2c(=O)n(CC(=O)Nc3cccc(C(F)(F)F)c3)ccc2s1,886
16,CC(C)c1ccc(NC(=O)Cn2nc3c4ccc(Cl)cc4ncn3c2=O)cc1,671
17,CCCCCNC(=O)c1sc2ncccc2c1-n1cccc1,1080
18,C=Cc1ccc(CN2CCCN(c3ncccc3-c3nc(C4CC4)no3)CC2)cc1,757
19,CCc1cc(=O)n(CC(=O)N(CC)c2ccccc2)c(N2CCOCC2)n1,747
20,O=C(NCCCn1nc(-c2ccco2)ccc1=O)Nc1ccc2c(c1)OCO2,678
21,CCOC(=O)c1c(C)c(CCC(=O)N2CCC(C)CC2)n(C)c1C,950
22,Fc1cccc(-c2noc(Cc3nnc(-c4ccc(Cl)cc4)o3)n2)c1,995

row,SMILES,RP-LC retention time [s]
1,CC(C)CNC(=O)CCc1nc2ccccc2n(CC(=O)NCc2ccc(F)cc2)c1=O,783
2,CC(C)CCNC(=O)c1ccc2c(c1)N(C)C(=O)C1CCCCN21 (stereo not drawn),885
3,Cc1ccc(C)c(NC(=O)CSc2nnc3c4cc(-c5ccc(C)c(C)c5)nn4ccn23)c1,778
4,O=C(Nc1nc(CC(=O)N2CCCc3ccccc32)cs1)c1ccco1,743
5,O=C(CSCC(=O)Nc1nc2ccccc2s1)Nc1nc(-c2cccs2)cs1,854
6,CC(C)n1cnc2cc(CNC(=O)Cc3cccs3)ccc21,600
7,Cc1ccc(NC(=O)CSc2nccc(N3CCN(c4cc(C)ccc4C)CC3)n2)c(C)c1,1060
8,O=C(NCCCN1CCC(N2CCCCC2)CC1)c1ccc2c(c1)NC(=O)C1CCCCN21 (stereo not drawn),537
9,CC(C)c1ccc(NC(=O)CSc2ccc(NC(=O)C3CC3)nn2)cc1,834
10,O=C(Nc1ccc2c(c1)OCCO2)N1CCCCC1c1nc(CCOCC2CC2)no1 (stereo not drawn),878
11,CC1CN(C(=O)CSc2cn(CC(=O)N(C(C)C)C(C)C)c3ccccc23)CC(C)O1 (stereo not drawn),959
12,Cc1noc(C)c1S(=O)(=O)N1CCCN(S(=O)(=O)c2ccccc2)CCC(=O)NCC1,752
13,COc1ccc(CNC(=O)c2cnc(N3CCC4(CC3)OCCO4)nc2N)c(OC)c1,640
14,Cc1ccc(S(=O)(=O)N2CCCCCC2)cc1-c1nnc(-c2ccc(F)cc2)o1,1220
15,O=C(NCc1ccco1)c1nnn(-c2ccc(F)cc2)c1-c1ccncc1,726
16,CCCN1C(=O)c2cc(S(=O)(=O)Nc3cc(F)ccc3C)ccc2Oc2cccnc21,1120
17,O=C1CCCc2cc(S(=O)(=O)NCCCN3CCN(c4ccccc4)CC3)ccc2N1,576
18,CCn1cc(C(=O)NCc2ccccc2C)c(S(=O)(=O)N2CCSCC2)n1,1120
19,Cc1ccc(C(=O)N2C[C@H](c3nc(-c4cccnc4)no3)[C@@H](C)C2)c(C)c1,853
20,O=C(Nc1ncc([N+](=O)[O-])s1)c1c2c(nn1C1CCS(=O)(=O)C1)CCC2 (stereo not drawn),792
21,COc1ccc(CC(=O)N2CCC3(C2)C(=O)N(C)c2ccc(OC)cc23)c(Cl)c1 (stereo not drawn),825
22,Cc1ccc(-c2nc(NCCC3=CCCCC3)c3ccccc3n2)cc1,974
